The source of these data is US8183239B2, “Substituted piperazines and piperidines as modulators of the neuropeptide Y2 receptor” (Janssen Pharmaceutica NV, priority 2005, dated 2012).

One experiment addresses T1, Y2 receptors (Homo sapiens, UniProt P49146).
T1 construct: endogenous in cells; host or cells: KAN-Ts cells (membranes)
T1 sequence (P49146 1-381): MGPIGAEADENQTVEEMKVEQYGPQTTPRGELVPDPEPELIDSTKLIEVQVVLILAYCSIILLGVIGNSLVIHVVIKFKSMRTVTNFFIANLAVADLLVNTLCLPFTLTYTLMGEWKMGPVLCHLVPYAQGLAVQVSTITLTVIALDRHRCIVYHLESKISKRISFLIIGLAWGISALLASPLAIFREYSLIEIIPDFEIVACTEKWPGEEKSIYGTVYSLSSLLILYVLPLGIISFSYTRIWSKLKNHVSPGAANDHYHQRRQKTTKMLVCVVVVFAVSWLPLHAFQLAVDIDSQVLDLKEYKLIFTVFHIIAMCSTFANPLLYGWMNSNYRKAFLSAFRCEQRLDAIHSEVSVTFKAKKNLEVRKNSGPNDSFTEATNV
In words: Radioligand binding assay ([125I]PYY, KAN-Ts cell membranes). As to conditions: Table 1, [125I]PYY 80 pM, average of results, read-out: IC50. The gist of the method:
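IC50 values are means of three to eight experiments run in duplicate, fitted sigmoidally against specific binding (defined by […]). Competition used 80 pM [^125I]PYY for 1 h at room temperature on KAN-Ts membranes carrying native Y2, with filtration and scintillation counting.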
Regarding `CCC(CC)C(=O)Nc1ccc(N2CCN(C(C(=O)OC)c3cc(F)cc(F)c3)CC2)c(F)c1` (centres unmarked) [Example 146, (3,5-Difluoro-phenyl)-{4-[4-(2-ethyl-butyrylamino)-2-fluoro-phenyl]-piperazin-1-yl}-acetic acid methyl ester], the IC50 is 115 nM.

For `CCNC(=O)C(c1ccccc1)C1CCN(c2ccc(NC(=O)C3(C)CCCCC3)cc2C#N)CC1` (centres unmarked) [Example 147, 1-Methyl-cyclohexanecarboxylic acid {3-cyano-4-[4-(ethylcarbamoyl-phenyl-methyl)-piperidin-1-yl]-phenyl}-amide], the IC50 was 100 nM.

As for `CCNC(=O)C(c1ccccc1)C1CCN(c2ccc(NC(=O)[C@@H]3CCOC3)cc2C#N)CC1` (stereo partly drawn) [Example 148, (R)-Tetrahydro-furan-3-carboxylic acid {3-cyano-4-[4-(ethylcarbamoyl-phenyl-methyl)-piperidin-1-yl]-phenyl}-amide], the IC50 worked out at 120 nM.

For `CCN(CC)C(=O)C(c1ccccc1)C1CCN(c2ccc(NC(=O)c3ccccc3SC)cc2F)CC1` (centres unmarked) [Example 149, N-{4-[4-(Diethylcarbamoyl-phenyl-methyl)-piperidin-1-yl]-3-fluoro-phenyl}-2-methylsulfanyl-benzamide], the IC50 was determined as 110 nM.

As for `O=C(Nc1ccc(N2CCN(C(C(=O)N3CCC(F)(F)C3)c3ccccc3)CC2)c(F)c1)[C@H]1CCOC1` (stereo partly drawn) [Example 151, (S)-Tetrahydro-furan-3-carboxylic acid (4-{4-[2-(3,3-difluoro-pyrrolidin-1-yl)-2-oxo-1-phenyl-ethyl]-piperazin-1-yl}-3-fluoro-phenyl)-amide], the IC50 was 140 nM.

With `CCN(CC)C(=O)C(c1ccccc1)N1CCN(c2ccc(NC(=O)C3C(C)(C)C3(C)C)cc2F)CC1` (centres unmarked) [Example 152, 2,2,3,3-Tetramethyl-cyclopropanecarboxylic acid {4-[4-(diethylcarbamoyl-phenyl-methyl)-piperazin-1-yl]-3-fluoro-phenyl}-amide], the IC50 came to 170 nM.

On to `CCC(CC)C(=O)Nc1ccc(N2CCN(C(C(=O)N(CC)CC)c3cc(F)ccc3Br)CC2)c(F)c1` (centres unmarked) [Example 153, N-(4-{4-[(2-Bromo-5-fluoro-phenyl)-diethylcarbamoyl-methyl]-piperazin-1-yl}-3-fluoro-phenyl)-2-ethyl-butyramide], for which the IC50 was found to be 142 nM.

Consider `CCN(CC)C(=O)C(c1ccccc1)C1CCN(c2ccc(NC(=O)Cc3cc(C)ccc3C)cc2F)CC1` (centres unmarked) [Example 154, 2-(1-{4-[2-(2,5-Dimethyl-phenyl)-acetylamino]-2-fluoro-phenyl}-piperidin-4-yl)-N,N-diethyl-2-phenyl-acetamide], for which the 50% inhibitory concentration (IC50) turned out to be 220 nM.

With `CCC(CC)C(=O)Nc1ccc(N2CCN(C(C(=O)N(CC)CC)c3ccc(F)cc3)CC2)c(F)c1` (centres unmarked) [Example 155, N-(4-{4-[Diethylcarbamoyl-(4-fluoro-phenyl)-methyl]-piperazin-1-yl}-3-fluoro-phenyl)-2-ethyl-butyramide], the IC50 was found to be 200 nM.

For the compound `CCN(CC)C(=O)C(c1ccccc1)C1CCN(c2ccc(NC(=O)Cc3c(F)cccc3F)cc2F)CC1` (centres unmarked) [Example 156, 2-(1-{4-[2-(2,6-Difluoro-phenyl)-acetylamino]-2-fluoro-phenyl}-piperidin-4-yl)-N,N-diethyl-2-phenyl-acetamide], the 50% inhibitory concentration (IC50) was 230 nM.

Take `CCN(CC)C(=O)C(c1ccccc1)C1CCN(c2ccc(NC(=O)c3cc(C)ccc3C)cc2F)CC1` (centres unmarked) [Example 157, N-{4-[4-(Diethylcarbamoyl-phenyl-methyl)-piperidin-1-yl]-3-fluoro-phenyl}-2,5-dimethyl-benzamide]: the IC50 is 235 nM.

Regarding `CCC(CC)C(=O)Nc1ccc(N2CCN(C(C(=O)N3CCC(F)(F)CC3)c3ccc(F)cc3)CC2)c(F)c1` (centres unmarked) [Example 158, N-(4-{4-[2-(4,4-Difluoro-piperidin-1-yl)-1-(4-fluoro-phenyl)-2-oxo-ethyl]-piperazin-1-yl}-3-fluoro-phenyl)-2-ethyl-butyramide], the IC50 is 240 nM.

Turning to `CCNC(=O)C(c1cccc(F)c1)N1CCN(c2ccc(NC(=O)C(CC)CC)cc2F)CC1` (centres unmarked) [Example 159, 2-Ethyl-N-(4-{4-[ethylcarbamoyl-(3-fluoro-phenyl)-methyl]-piperazin-1-yl}-3-fluoro-phenyl)-butyramide], the half-maximal inhibitory concentration (IC50) amounted to 250 nM.

In the case of `CCN(CC)C(=O)C(c1ccccc1)C1CCN(c2ccc(NC(=O)c3ccccc3N)cc2F)CC1` (centres unmarked) [Example 160, 2-Amino-N-{4-[4-(diethylcarbamoyl-phenyl-methyl)-piperidin-1-yl]-3-fluoro-phenyl}-benzamide], the IC50 came to 260 nM.

Take `CCN(CC)C(=O)C(c1ccccc1)N1CCN(c2ccc(NC(=O)CC3CC3)cc2F)CC1` (centres unmarked) [Example 161, 2-{4-[4-(2-Cyclopropyl-acetylamino)-2-fluoro-phenyl]-piperazin-1-yl}-N,N-diethyl-2-phenyl-acetamide]: the IC50 stood at 300 nM.

Turning to `CCN(CC)C(=O)C(c1ccccc1)N1CCN(c2ccc(NC(=O)Cc3ccccc3OC)cc2F)CC1` (centres unmarked) [Example 162, N,N-Diethyl-2-(4-{2-fluoro-4-[2-(2-methoxy-phenyl)-acetylamino]-phenyl}-piperazin-1-yl)-2-phenyl-acetamide], the IC50 was found to be 300 nM.

For the compound `CCN(CC)C(=O)C(c1ccccc1)C1CCN(c2ccc(NC(=O)c3cnoc3C)cc2F)CC1` (centres unmarked) [Example 163, 5-Methyl-isoxazole-4-carboxylic acid {4-[4-(diethylcarbamoyl-phenyl-methyl)-piperidin-1-yl]-3-fluoro-phenyl}-amide], the concentration for half-maximal inhibition (IC50) was determined as 300 nM.

Still in this experiment, the particulars now being: Table 2, [125I]PYY 80 pM, average of results, read-out: IC50.
For `CCCS(=O)(=O)Nc1ccc(N2CCN(C(C(=O)N(CC)CC)c3ccccc3)CC2)c(F)c1` (centres unmarked) [Example 165, N,N-Diethyl-2-{4-[2-fluoro-4-(propane-1-sulfonylamino)-phenyl]-piperazin-1-yl}-2-phenyl-acetamide], the IC50 turned out to be 1100 nM.

Turning to `CCCS(=O)(=O)N(c1ccc(N2CCN(C(C(=O)N(CC)CC)c3ccccc3)CC2)c(F)c1)S(=O)(=O)CCC` (centres unmarked) [Example 166, N-{4-[4-(Diethylcarbamoyl-phenyl-methyl)-piperazin-1-yl]-3-fluoro-phenyl}-N-dipropanesulfonanilide], the IC50 came to 560 nM.

`CCN(CC)C(=O)C(c1ccccc1)N1CCN(c2ccc(C(=O)C3CCCC3)cc2F)CC1` (centres unmarked) [Example 167, 2-[4-(4-Cyclopentanecarbonyl-2-fluoro-phenyl)-piperazin-1-yl]-N,N-diethyl-2-phenyl-acetamide]: the IC50 turned out to be 3300 nM.

Turning to `CCN(CC)C(=O)C(c1ccccc1)N1CCN(c2ccc(/C(=N/O)C3CCCC3)cc2F)CC1` (centres unmarked) [Example 168, 2-{4-[4-(Cyclopentyl-hydroxyimino-methyl)-2-fluoro-phenyl]-piperazin-1-yl}-N,N-diethyl-2-phenyl-acetamide], the IC50 turned out to be 740 nM.

On to `CCC(C)C(=O)c1ccc(N2CCN(C(C(=O)N(CC)CC)c3ccccc3)CC2)c(F)c1` (centres unmarked) [Example 169, N,N-Diethyl-2-{4-[2-fluoro-4-(2-methyl-butyryl)-phenyl]-piperazin-1-yl}-2-phenyl-acetamide], for which the IC50 was 410 nM.

Consider `CCC(CC)C(=O)NCc1ccc(N2CCN(C(C(=O)N(CC)CC)c3ccccc3)CC2)c(F)c1` (centres unmarked) [Example 170, N-{4-[4-(Diethylcarbamoyl-phenyl-methyl)-piperazin-1-yl]-3-fluoro-benzyl}-2-ethyl-butyramide], for which the IC50 stood at 260 nM.

Take `CCOC(=O)C(c1ccccc1)N1CCN(c2ccc(N3CCN(C(CC)CC)S3(=O)=O)cc2F)CC1` (centres unmarked) [Example 171, {4-[2-Fluoro-4-(5-(3-pentyl)-1,2,5-thiadiazolidine-2-yl,1,1-dioxide)-phenyl]-piperazin-1-yl}-phenyl-acetic acid ethyl ester]: the half-inhibitory concentration (IC50) was 270 nM.

Consider `CCCNS(=O)(=O)N(CCC)c1ccc(N2CCN(C(C(=O)N(CC)CC)c3ccccc3)CC2)c(F)c1` (centres unmarked) [Example 172, 2-{4-[4-(1,3-Dipropyl-sulfamoyl)-2-fluoro-phenyl]-piperazin-1-yl}-N,N-diethyl-2-phenyl-acetamide], for which the IC50 amounted to 520 nM.

On to `CCN(CC)C(=O)C(c1ccccc1)N1CCN(c2ccc(N3CCN(C(=O)OC)S3(=O)=O)cc2F)CC1` (centres unmarked) [Example 173, 3-{4-[4-(Diethylcarbamoyl-phenyl-methyl)-piperazin-1-yl]-3-fluoro-phenyl}-1,2,5-thiadiazolidine, 1,1-dioxide-2-carboxylic acid methyl ester], for which the IC50 came out at 590 nM.

As to `CCN(CC)C(=O)C(c1ccccc1)N1CCN(c2ccc(N3CCNS3(=O)=O)cc2F)CC1` (centres unmarked) [Example 174, N,N-Diethyl-2-{4-[2-fluoro-4-(1,2,5-thiadiazolidine-2-yl,1,1-dioxide)-phenyl]-piperazin-1-yl}-2-phenyl-acetamide], the IC50 was 4000 nM.

Take `CCOC(=O)C(c1ccccc1)N1CCN(c2ccc(N3CCN(C(=O)OC)S3(=O)=O)cc2F)CC1` (centres unmarked) [Example 175, 3-{4-[4-(Ethoxycarbonyl-phenyl-methyl)-piperazin-1-yl]-3-fluoro-phenyl}-1,2,5-thiadiazolidine, 1,1-dioxide-2-carboxylic acid methyl ester]: the IC50 is at least 10000 nM.

Take `CCOC(=O)C(c1ccccc1)N1CCN(c2ccc(N3CCNS3(=O)=O)cc2F)CC1` (centres unmarked) [Example 176, {4-[2-Fluoro-4-(1,2,5-Thiadiazolidine-2-yl,1,1-dioxide)-phenyl]-piperazin-1-yl}-phenyl-acetic acid ethyl ester]: the IC50 was at least 10000 nM.
